Reference: article PMC3848336, “Aurora Isoform Selectivity: Design and Synthesis of Imidazo[4,5-b]pyridine Derivatives as Highly Selective Inhibitors of Aurora-A Kinase in Cells” (Journal of Medicinal Chemistry, 2013)

Columns and labels:
Assay in all cases: Kinase selectivity profiling
Format in all cases: biochemical
MST2 = MST2 (Homo sapiens, UniProt Q13188)
Excerpt: (§1) Compound 28c was profiled against a panel of 110 kinases at the International Centre for Protein Kinase Profiling, Division of Signal Transduction Therapy, University of Dundee. Compound 40f was profiled against a panel of 50 kinases (MRC-PPU Express Screen) also at the International Centre for Protein Kinase Profiling.

IRAK4 = IRAK4 (Homo sapiens, UniProt Q9NWZ3)
Chain of IRAK4 (Q9NWZ3 whole entry): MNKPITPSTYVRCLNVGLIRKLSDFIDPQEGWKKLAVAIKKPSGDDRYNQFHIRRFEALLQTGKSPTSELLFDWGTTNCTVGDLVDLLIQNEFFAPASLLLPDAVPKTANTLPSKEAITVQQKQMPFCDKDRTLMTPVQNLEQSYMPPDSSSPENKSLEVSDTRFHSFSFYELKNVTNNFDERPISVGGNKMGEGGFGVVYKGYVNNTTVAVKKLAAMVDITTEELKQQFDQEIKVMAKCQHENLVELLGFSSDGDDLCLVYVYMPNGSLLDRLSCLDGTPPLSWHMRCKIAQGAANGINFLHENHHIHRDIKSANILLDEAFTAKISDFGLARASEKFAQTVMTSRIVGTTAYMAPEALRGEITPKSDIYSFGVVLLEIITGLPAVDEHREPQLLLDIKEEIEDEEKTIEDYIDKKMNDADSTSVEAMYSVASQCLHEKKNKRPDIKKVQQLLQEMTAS
Excerpt: as §1

MNK1 = MNK1 (Homo sapiens, UniProt Q9BUB5); details: 110-kinase panel
Excerpt: as §1

MLK1 = MLK1 (Homo sapiens, UniProt P80192); details: 110-kinase panel
Excerpt: as §1

NEK2a = NEK2a (Homo sapiens, UniProt P51955); details: 110-kinase panel
Excerpt: as §1

EPH-B4 = EPH-B4 (Homo sapiens, UniProt P54760); details: 110-kinase panel, read-out: % activity remaining, EPH2B4
Excerpt: as §1

DYRK2 = DYRK2 (Homo sapiens, UniProt Q92630); details: 110-kinase panel
Excerpt: as §1

CDK2-Cyclin A = CDK2-Cyclin A (Homo sapiens, UniProt P24941); details: 110-kinase panel, read-out: % activity remaining, CDK22Cyclin A
Excerpt: as §1

Lck = Lck (Homo sapiens, UniProt P06239)
Chain of Lck (P06239 whole entry): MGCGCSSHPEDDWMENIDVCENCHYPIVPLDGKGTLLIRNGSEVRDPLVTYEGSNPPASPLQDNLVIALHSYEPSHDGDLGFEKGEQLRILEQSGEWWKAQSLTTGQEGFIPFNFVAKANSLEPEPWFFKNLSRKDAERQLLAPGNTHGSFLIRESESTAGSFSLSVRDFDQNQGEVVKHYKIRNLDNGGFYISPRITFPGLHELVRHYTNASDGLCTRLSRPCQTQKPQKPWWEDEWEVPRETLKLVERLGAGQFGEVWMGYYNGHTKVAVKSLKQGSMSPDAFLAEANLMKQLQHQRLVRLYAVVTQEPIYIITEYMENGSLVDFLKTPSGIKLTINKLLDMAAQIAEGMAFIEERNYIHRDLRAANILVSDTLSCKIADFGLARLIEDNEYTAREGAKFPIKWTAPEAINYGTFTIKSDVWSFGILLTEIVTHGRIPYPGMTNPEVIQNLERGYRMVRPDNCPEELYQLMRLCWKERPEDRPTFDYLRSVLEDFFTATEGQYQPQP
Excerpt: as §1

ERK8 = ERK8 (Homo sapiens, UniProt Q8TD08); details: 110-kinase panel
Excerpt: as §1

CK1 = CK1 (Homo sapiens, UniProt P48730); details: 110-kinase panel
Chain of CK1 (P48730 whole entry): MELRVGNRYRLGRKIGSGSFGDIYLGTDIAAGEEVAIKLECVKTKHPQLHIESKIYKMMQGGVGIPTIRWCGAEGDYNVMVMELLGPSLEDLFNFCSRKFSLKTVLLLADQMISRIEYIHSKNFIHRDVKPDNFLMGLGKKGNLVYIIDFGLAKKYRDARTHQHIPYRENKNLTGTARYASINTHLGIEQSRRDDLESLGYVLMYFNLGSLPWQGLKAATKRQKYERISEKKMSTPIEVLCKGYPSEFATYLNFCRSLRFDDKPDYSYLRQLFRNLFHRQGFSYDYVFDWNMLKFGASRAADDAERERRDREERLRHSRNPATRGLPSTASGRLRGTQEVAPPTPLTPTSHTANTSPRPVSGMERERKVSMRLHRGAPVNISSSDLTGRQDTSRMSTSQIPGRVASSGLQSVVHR
Excerpt: as §1

BRSK2 = BRSK2 (Homo sapiens, UniProt Q8IWQ3); details: 110-kinase panel
Excerpt: as §1

FGF-R1 = FGF-R1 (Homo sapiens, UniProt P11362); details: 110-kinase panel, read-out: % activity remaining, FGF2R1
Excerpt: as §1

p38d MAPK = p38d MAPK (Homo sapiens, UniProt O15264); details: 110-kinase panel
Excerpt: as §1

AMPK = details: 1 µM; 110-kinase panel
Excerpt: as §1

MST4 = MST4 (Homo sapiens, UniProt Q9P289); details: 110-kinase panel
Excerpt: as §1

ERK1 = ERK1 (Homo sapiens, UniProt P27361); details: 110-kinase panel
Excerpt: as §1

PAK5 = PAK5 (Homo sapiens, UniProt Q9P286); details: 110-kinase panel
Excerpt: as §1

IR = IR (Homo sapiens, UniProt P06213); details: 110-kinase panel
Chain of IR (P06213 28-1382): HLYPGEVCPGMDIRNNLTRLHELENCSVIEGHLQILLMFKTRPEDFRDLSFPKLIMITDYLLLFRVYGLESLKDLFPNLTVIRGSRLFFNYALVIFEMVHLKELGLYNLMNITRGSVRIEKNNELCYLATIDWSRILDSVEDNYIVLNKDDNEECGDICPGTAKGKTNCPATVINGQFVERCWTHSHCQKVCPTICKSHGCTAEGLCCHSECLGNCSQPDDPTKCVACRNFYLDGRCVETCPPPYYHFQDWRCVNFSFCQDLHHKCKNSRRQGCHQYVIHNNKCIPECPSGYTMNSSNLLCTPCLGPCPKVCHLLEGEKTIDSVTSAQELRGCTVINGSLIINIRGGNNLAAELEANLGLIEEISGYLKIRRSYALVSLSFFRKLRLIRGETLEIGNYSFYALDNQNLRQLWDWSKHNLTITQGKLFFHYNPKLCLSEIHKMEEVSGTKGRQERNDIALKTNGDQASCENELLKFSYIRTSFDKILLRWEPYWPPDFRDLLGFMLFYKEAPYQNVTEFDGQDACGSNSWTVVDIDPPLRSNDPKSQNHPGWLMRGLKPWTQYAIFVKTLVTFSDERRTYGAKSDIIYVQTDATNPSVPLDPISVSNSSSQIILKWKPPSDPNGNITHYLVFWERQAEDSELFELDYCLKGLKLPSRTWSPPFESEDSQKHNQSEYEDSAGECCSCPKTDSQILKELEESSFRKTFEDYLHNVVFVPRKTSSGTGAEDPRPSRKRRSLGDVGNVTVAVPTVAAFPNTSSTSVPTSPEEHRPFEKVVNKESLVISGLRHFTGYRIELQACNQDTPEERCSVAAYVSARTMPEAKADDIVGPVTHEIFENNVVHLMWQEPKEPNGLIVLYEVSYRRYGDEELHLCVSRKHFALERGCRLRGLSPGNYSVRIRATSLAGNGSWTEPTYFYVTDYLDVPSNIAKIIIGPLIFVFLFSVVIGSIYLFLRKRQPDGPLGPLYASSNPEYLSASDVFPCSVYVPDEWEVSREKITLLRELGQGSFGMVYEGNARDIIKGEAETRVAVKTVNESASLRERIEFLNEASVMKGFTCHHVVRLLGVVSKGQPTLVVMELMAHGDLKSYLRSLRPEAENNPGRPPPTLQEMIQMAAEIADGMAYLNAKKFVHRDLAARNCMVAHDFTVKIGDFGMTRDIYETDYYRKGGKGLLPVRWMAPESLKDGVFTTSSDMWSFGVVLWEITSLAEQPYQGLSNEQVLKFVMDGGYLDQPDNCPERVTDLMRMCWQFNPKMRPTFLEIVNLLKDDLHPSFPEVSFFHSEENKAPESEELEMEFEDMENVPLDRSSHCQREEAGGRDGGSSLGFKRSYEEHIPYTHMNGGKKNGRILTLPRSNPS
Excerpt: as §1

MELK = MELK (Homo sapiens, UniProt Q14680); details: 110-kinase panel
Excerpt: as §1

TAO1 = TAO1 (Homo sapiens, UniProt Q7L7X3); details: 110-kinase panel
Excerpt: as §1

PAK6 = PAK6 (Homo sapiens, UniProt Q9NQU5); details: 110-kinase panel
Excerpt: as §1

JNK3 = JNK3 (Homo sapiens, UniProt P53779); details: 110-kinase panel
Excerpt: as §1

CK2 = CK2 (Homo sapiens, UniProt P68400)
Chain of CK2 (P68400 whole entry): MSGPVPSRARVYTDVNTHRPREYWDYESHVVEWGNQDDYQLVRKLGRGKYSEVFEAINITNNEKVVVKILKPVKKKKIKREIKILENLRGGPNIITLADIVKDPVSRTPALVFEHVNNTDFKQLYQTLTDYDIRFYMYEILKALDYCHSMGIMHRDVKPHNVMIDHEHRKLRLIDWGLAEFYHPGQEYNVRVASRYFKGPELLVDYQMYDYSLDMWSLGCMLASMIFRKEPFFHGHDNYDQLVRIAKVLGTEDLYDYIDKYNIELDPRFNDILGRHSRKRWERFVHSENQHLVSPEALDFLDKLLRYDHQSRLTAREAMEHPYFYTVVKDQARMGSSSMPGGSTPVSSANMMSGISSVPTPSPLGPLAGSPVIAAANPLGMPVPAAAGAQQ
Excerpt: as §1

PAK2 = PAK2 (Homo sapiens, UniProt Q13177); details: 110-kinase panel
Excerpt: as §1

PRAK = PRAK (Homo sapiens, UniProt Q8IW41); details: 110-kinase panel
Excerpt: as §1

EF2K = EF2K (Homo sapiens, UniProt O00418)
Excerpt: as §1

PIM3 = PIM3 (Homo sapiens, UniProt Q86V86); details: 110-kinase panel
Excerpt: as §1

CLK2 = CLK2 (Homo sapiens, UniProt P49760); details: 110-kinase panel
Excerpt: as §1

IKKb = IKKb (Homo sapiens, UniProt O14920); details: 110-kinase panel
Chain of IKKb (O14920 whole entry): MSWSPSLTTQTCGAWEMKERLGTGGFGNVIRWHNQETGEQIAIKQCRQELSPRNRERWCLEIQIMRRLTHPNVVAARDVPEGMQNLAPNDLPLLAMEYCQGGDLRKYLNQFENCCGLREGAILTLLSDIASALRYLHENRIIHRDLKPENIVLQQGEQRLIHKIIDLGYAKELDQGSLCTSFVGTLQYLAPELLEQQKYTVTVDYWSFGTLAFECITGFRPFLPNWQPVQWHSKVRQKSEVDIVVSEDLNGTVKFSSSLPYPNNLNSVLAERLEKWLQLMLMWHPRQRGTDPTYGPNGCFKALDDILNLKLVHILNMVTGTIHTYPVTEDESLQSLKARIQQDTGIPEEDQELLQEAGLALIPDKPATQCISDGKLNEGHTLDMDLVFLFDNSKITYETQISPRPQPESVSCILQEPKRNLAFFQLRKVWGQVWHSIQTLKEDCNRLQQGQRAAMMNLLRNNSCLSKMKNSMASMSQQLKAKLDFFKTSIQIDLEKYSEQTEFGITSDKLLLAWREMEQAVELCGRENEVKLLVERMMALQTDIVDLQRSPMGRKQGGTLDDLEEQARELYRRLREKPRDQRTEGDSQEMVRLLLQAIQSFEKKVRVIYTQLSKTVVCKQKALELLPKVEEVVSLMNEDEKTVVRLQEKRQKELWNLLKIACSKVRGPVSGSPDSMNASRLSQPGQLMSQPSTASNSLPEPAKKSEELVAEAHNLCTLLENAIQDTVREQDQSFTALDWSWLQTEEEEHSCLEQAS
Excerpt: as §1

p38g MAPK = p38g MAPK (Homo sapiens, UniProt P53778); details: 110-kinase panel
Excerpt: as §1

MARK4 = MARK4 (Homo sapiens, UniProt Q96L34); details: 110-kinase panel
Excerpt: as §1

JNK2 = JNK2 (Homo sapiens, UniProt P45984); details: 110-kinase panel
Excerpt: as §1

MEKK1 = MEKK1 (Homo sapiens, UniProt Q13233); details: 110-kinase panel
Excerpt: as §1

PKCz = PKCz (Homo sapiens, UniProt Q05513); details: 110-kinase panel
Excerpt: as §1

GCK = GCK (Homo sapiens, UniProt Q12851); details: 110-kinase panel
Excerpt: as §1

MKK2 = MKK2 (Homo sapiens, UniProt P36507); details: 110-kinase panel
Excerpt: as §1

IKKe = IKKe (Homo sapiens, UniProt Q14164); details: 110-kinase panel
Excerpt: as §1

MINK1 = MINK1 (Homo sapiens, UniProt Q8N4C8); details: 110-kinase panel
Excerpt: as §1

BRSK1 = BRSK1 (Homo sapiens, UniProt Q8TDC3); details: 110-kinase panel
Excerpt: as §1

ASK1 = ASK1 (Homo sapiens, UniProt Q99683); details: 110-kinase panel
Excerpt: as §1

DAPK1 = DAPK1 (Homo sapiens, UniProt P53355); details: 110-kinase panel
Excerpt: as §1

Aurora B = Aurora B (Homo sapiens, UniProt Q96GD4)
Chain of Aurora B (Q96GD4 whole entry): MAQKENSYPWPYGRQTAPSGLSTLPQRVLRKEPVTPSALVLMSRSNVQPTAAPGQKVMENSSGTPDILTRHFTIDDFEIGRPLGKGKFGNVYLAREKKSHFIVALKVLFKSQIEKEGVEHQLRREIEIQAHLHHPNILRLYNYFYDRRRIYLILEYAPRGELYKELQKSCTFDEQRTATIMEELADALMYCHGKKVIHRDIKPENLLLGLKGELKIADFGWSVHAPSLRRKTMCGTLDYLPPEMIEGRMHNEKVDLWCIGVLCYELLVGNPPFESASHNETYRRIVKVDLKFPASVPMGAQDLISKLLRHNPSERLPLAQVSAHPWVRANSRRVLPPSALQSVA

[1] = 50-kinase panel (MRC-PPU Express Screen)

Chain of MST2 (Q13188 whole entry): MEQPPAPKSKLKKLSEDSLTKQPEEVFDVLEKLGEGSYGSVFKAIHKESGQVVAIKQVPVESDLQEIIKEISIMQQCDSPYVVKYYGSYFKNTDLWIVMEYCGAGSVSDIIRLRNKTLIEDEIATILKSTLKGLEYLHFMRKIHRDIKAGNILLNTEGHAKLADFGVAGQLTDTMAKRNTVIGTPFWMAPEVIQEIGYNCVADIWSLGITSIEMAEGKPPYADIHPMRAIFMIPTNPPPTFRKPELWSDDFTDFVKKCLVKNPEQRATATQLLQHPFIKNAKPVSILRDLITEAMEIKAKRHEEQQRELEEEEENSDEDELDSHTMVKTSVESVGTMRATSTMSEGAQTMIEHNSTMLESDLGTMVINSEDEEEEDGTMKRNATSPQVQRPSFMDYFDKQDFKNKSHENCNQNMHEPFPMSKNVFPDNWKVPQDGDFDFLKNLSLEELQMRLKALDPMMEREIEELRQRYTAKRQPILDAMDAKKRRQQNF

Cc1nn(C)cc1-c1nc2c(Oc3ccc(C(=O)Nc4ccccc4)cc3)c(Cl)cnc2[nH]1 [compound 28c, 4-((6-Chloro-2-(1,3-dimethyl-1H-pyrazol-4-yl)-3H-imidazo[4,5-b]pyridin-7-yl)oxy)-N-phenylbenzamide]
remaining activity at 1 µM (MST2; 110-kinase panel): 106%
remaining activity at 1 µM (IRAK4; 110-kinase panel): 95%
remaining activity at 1 µM (MNK1): 126%
remaining activity at 1 µM (MLK1): 31%
remaining activity at 1 µM (NEK2a): 96%
remaining activity at 1 µM (EPH-B4): 102%
remaining activity at 1 µM (DYRK2): 87%
remaining activity at 1 µM (CDK2-Cyclin A): 58%
remaining activity at 1 µM (Lck; 110-kinase panel): 110%
remaining activity at 1 µM (ERK8): 36%
remaining activity at 1 µM (CK1): 86%
remaining activity at 1 µM (BRSK2): 111%
remaining activity at 1 µM (FGF-R1): 82%
remaining activity at 1 µM (p38d MAPK): 102%
% activity remaining, AMPK (AMPK): 83%
remaining activity at 1 µM (MST4): 115%
remaining activity at 1 µM (ERK1): 172%
remaining activity at 1 µM (PAK5): 56%
remaining activity at 1 µM (IR): 124%
remaining activity at 1 µM (MELK): 79%
remaining activity at 1 µM (TAO1): 100%
remaining activity at 1 µM (PAK6): 101%
remaining activity at 1 µM (JNK3): 87%
remaining activity at 1 µM (CK2; 110-kinase panel): 108%
remaining activity at 1 µM (PAK2): 102%
remaining activity at 1 µM (PRAK): 103%
remaining activity at 1 µM (EF2K; 110-kinase panel): 93%
remaining activity at 1 µM (PIM3): 102%
remaining activity at 1 µM (CLK2): 84%
remaining activity at 1 µM (IKKb): 99%
remaining activity at 1 µM (p38g MAPK): 96%
remaining activity at 1 µM (MARK4): 85%
remaining activity at 1 µM (JNK2): 90%
remaining activity at 1 µM (MEKK1): 93%
remaining activity at 1 µM (PKCz): 100%
remaining activity at 1 µM (GCK): 98%
remaining activity at 1 µM (MKK2): 94%
remaining activity at 1 µM (IKKe): 101%
remaining activity at 1 µM (MINK1): 75%
remaining activity at 1 µM (BRSK1): 109%
remaining activity at 1 µM (ASK1): 119%
remaining activity at 1 µM (DAPK1): 95%
remaining activity at 1 µM (Aurora B; 110-kinase panel): 25%

Cc1nn(C)cc1-c1nc2c(Oc3ccc(C(=O)NC4CCC4)cc3)c(Cl)cnc2[nH]1 [compound 40f, 4-((6-Chloro-2-(1,3-dimethyl-1H-pyrazol-4-yl)-3H-imidazo[4,5-b]pyridin-7-yl)oxy)-N-cyclobutylbenzamide]
remaining activity at 1 µM (MST2; [1]): 141%
remaining activity at 1 µM (IRAK4; [1]): 89%
remaining activity at 1 µM (Lck; [1]): 95%
remaining activity at 1 µM (CK2; [1]): 93%
remaining activity at 1 µM (EF2K; [1]): 100%
remaining activity at 1 µM (Aurora B; [1]): 66%
